According to EP0745595A1, “3-(3-Aryloxyphenyl)-1-(substituted methyl)-s-triazine-2,4,6-oxo or thiotrione herbicidal agents” (American Cyanamid Company, priority 1995, dated 1996):

Legend:
Format in all cases: in vivo
[1] = system: IPOMOEA SPP.; experiment: Preemergence herbicidal evaluation, IPOSS (Morningglory spp.); conditions: rated four to five weeks after treatment
In short: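 Seeds of morningglory (Ipomoea spp.) were mixed with potting soil and sown on roughly one inch of soil in pint cups for a preemergence herbicide test. The cups were put on greenhouse benches, watered, and maintained by standard greenhouse practice. Four to five weeks after treatment each cup was scored visually on a 0-9 scale against a control.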

[2] = system: AMBROSIA ARTEMISIIFOLIA, L.; experiment: Preemergence herbicidal evaluation, AMBEL (Ragweed, Common); conditions: rated four to five weeks after treatment
In short: (§1)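 Injury scored visually (0–9; stand, vigor, malformation, size, chlorosis) versus untreated control, four to five weeks post-treatment. Application: aqueous acetone spray onto freshly planted soil cups, equivalent to about 0.125 to 0.50 kg/ha, plants then kept under standard greenhouse care.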

[3] = system: GALIUM APARINE; experiment: Preemergence herbicidal evaluation, GALAP (Galium); conditions: rated four to five weeks after treatment
In short: as §1

[4] = system: CHENOPODIUM ALBUM, L.; experiment: Postemergence herbicidal evaluation, CHEAL (Lambsquarters, Common)
In short: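 Seedlings of common lambsquarters (Chenopodium album) were raised in jiffy flats for roughly two weeks, then sprayed postemergence through a nozzle at 40 psi with test compound dispersed in 50/50 acetone/water containing 0.5% TWEEN®20 surfactant. Plants were kept on greenhouse benches under standard care and rated visually on a 0-9 scale versus controls.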

[5] = system: SAGITTARIA PYGMAEA, L.; experiment: Preemergence weed control under flooded paddy conditions, SAGPY (Arrowhead (Pygmaea)); conditions: preemergence, 3-4 weeks after treatment
In short: (§2)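 Flooded paddy preemergence test: seeds/propagating organs in top 0.5 cm silt loam, water held 1.5-3 cm above soil. Dosing by pipette into flood water, aqueous/acetone 50/50 v/v, ~0.5, 0.25, 0.125, 0.063 kg/ha a.i. Greenhouse; read at 3-4 wk, 0-9 visual scale.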

[6] = system: GLYCINE MAX(L) MERR. CV. WILLIAMS; experiment: Preemergence herbicidal evaluation, GLXMAW (Soybean, Williams); conditions: rated four to five weeks after treatment
In short: as §1

[7] = system: ECHINOCHLOA CRUS-GALLI, (L) BEAU; experiment: Preemergence herbicidal evaluation, ECHCG (Barnyardgrass); conditions: rated four to five weeks after treatment
In short: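 Barnyardgrass seeds were mixed with potting soil and planted on about one inch of soil in pint cups for preemergence testing. Treated cups were kept on greenhouse benches, watered and maintained by standard greenhouse practice. After four to five weeks, each cup was visually rated on a 0-9 scale against an untreated control.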

[8] = system: GLYCINE MAX(L) MERR. CV. WILLIAMS; experiment: Postemergence herbicidal evaluation, GLXMAW (Soybean, Williams); parameters: key to GLXMAW rating / Herbicidal effect rating, GLXMAW / GLXMAW: 0-9 visual rating scale vs untreated control
In short: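 Soybean seedlings (Williams) were raised in jiffy flats for roughly two weeks, then sprayed postemergence through a nozzle at 40 psi with test compound dispersed in 50/50 acetone/water containing 0.5% TWEEN®20. Treated plants were kept on greenhouse benches under normal care and visually rated on a 0-9 scale four to five weeks later.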

[9] = system: ORYZA SATIVA, L. TEBONNET; experiment: Preemergence herbicidal evaluation, ORYSAT (Rice, Tebonnet); conditions: rated four to five weeks after treatment
In short: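 Seeds of rice (Oryza sativa, Tebonnet) were mixed with potting soil and sown on about one inch of soil in pint cups, then treated preemergence. Cups sat on greenhouse benches, watered and tended by standard greenhouse practice. Four to five weeks after treatment, plants were visually scored on a 0-9 scale relative to a control.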

[10] = system: ABUTILON THEOPHRASTI, MEDIC.; experiment: Preemergence herbicidal evaluation, ABUTH (Velvetleaf); conditions: rated four to five weeks after treatment
In short: as §1

[11] = system: CYPERUS SEROTINUS, ROTTB.; experiment: Preemergence weed control under flooded paddy conditions, CYPSE (Flatsedge); conditions: preemergence, 3-4 weeks after treatment
In short: as §2

[12] = system: ORYZA SATIVA, L. TEBONNET; experiment: Rice tolerance to post-transplant applications under flooded paddy conditions, ORYSAT (Rice, Tebonnet); conditions: post-transplant rice, 3-4 weeks after treatment
In short: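 Post-transplant paddy test: compound applied 3 d after transplanting to flooded soil (1.5-3 cm water), ~0.063-0.5 kg/ha a.i., 50/50 aq/acetone. Silt loam, 2 × 10-d seedlings/pot. Greenhouse 3-4 wk, visual 0-9 score vs control.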

[13] = system: ZEA MAYS L.; experiment: Preemergence herbicidal evaluation, ZEAMX (Corn, Field); conditions: rated four to five weeks after treatment
In short: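 Corn (Zea mays) seeds were mixed with potting soil and planted on about one inch of soil in pint cups, then treated preemergence. Cups were kept on greenhouse benches, watered and maintained conventionally, and after four to five weeks were visually rated on a 0-9 scale versus an untreated control.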

[14] = system: SETARIA VIRIDIS, (L) BEAU; experiment: Preemergence herbicidal evaluation, SETVI (Foxtail, Green); conditions: rated four to five weeks after treatment
In short: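 Seeds of green foxtail (Setaria viridis) were mixed with potting soil and sown on top of roughly one inch of soil in pint cups for a preemergence herbicide test. Treated cups were kept on greenhouse benches, watered, and cared for conventionally. Four to five weeks after treatment, plants were rated visually on a 0-9 scale against a control.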

[15] = system: TRITICUM AESTIVUM, CV. APOLLO; experiment: Preemergence herbicidal evaluation, TRZAWO (Wheat, Winter, CV. APOLLO); conditions: rated four to five weeks after treatment
In short: as §1

COC(=O)Cn1c(=O)n(C)c(=O)n(-c2cc(Oc3ccc([S+](C)[O-])cc3Cl)ccc2[N+](=O)[O-])c1=O (stereo not drawn) [Compound 36]
IPOSS herbicidal rating ([1]; Rate 0.125 kg/ha): 0.0
IPOSS herbicidal rating ([1]; Rate 0.250 kg/ha): 0.0
IPOSS herbicidal rating ([1]; Rate 0.500 kg/ha): 0.0
AMBEL herbicidal rating ([2]; Rate 0.125 kg/ha): 0.0
AMBEL herbicidal rating ([2]; Rate 0.250 kg/ha): 0.0
AMBEL herbicidal rating ([2]; Rate 0.500 kg/ha): 0.0
GALAP herbicidal rating ([3]; Rate 0.125 kg/ha): 0.0
GALAP herbicidal rating ([3]; Rate 0.250 kg/ha): 0.0
GALAP herbicidal rating ([3]; Rate 0.500 kg/ha): 0.0
CHEAL rating ([4]; Rate 0.125 kg/ha): 8.0
CHEAL rating ([4]; Rate 0.250 kg/ha): 8.0
CHEAL rating ([4]; Rate 0.500 kg/ha): 8.0
Herbicidal effect rating, SAGPY ([5]; 0.063 kg/ha): 0.0
Herbicidal effect rating, SAGPY ([5]; 0.125 kg/ha): 0.0
Herbicidal effect rating, SAGPY ([5]; 0.250 kg/ha): 0.0
Herbicidal effect rating, SAGPY ([5]; 0.500 kg/ha): 0.0
GLXMAW herbicidal rating ([6]; Rate 0.125 kg/ha): 0.0
GLXMAW herbicidal rating ([6]; Rate 0.250 kg/ha): 0.0
GLXMAW herbicidal rating ([6]; Rate 0.500 kg/ha): 0.0
ECHCG herbicidal rating ([7]; Rate 0.125 kg/ha): 0.0
ECHCG herbicidal rating ([7]; Rate 0.250 kg/ha): 0.0
ECHCG herbicidal rating ([7]; Rate 0.500 kg/ha): 0.0
GLXMAW rating ([8]; Rate 0.125 kg/ha): 5.0
GLXMAW rating ([8]; Rate 0.250 kg/ha): 5.0
GLXMAW rating ([8]; Rate 0.500 kg/ha): 5.0
ORYSAT herbicidal rating ([9]; Rate 0.125 kg/ha): 0.0
ORYSAT herbicidal rating ([9]; Rate 0.250 kg/ha): 0.0
ORYSAT herbicidal rating ([9]; Rate 0.500 kg/ha): 0.0
ABUTH herbicidal rating ([10]; Rate 0.125 kg/ha): 0.0
ABUTH herbicidal rating ([10]; Rate 0.250 kg/ha): 0.0
ABUTH herbicidal rating ([10]; Rate 0.500 kg/ha): 0.0
Herbicidal effect rating, CYPSE ([11]; 0.063 kg/ha): 0.0
Herbicidal effect rating, CYPSE ([11]; 0.125 kg/ha): 0.0
Herbicidal effect rating, CYPSE ([11]; 0.250 kg/ha): 0.0
Herbicidal effect rating, CYPSE ([11]; 0.500 kg/ha): 0.0
Herbicidal effect rating, ORYSAT ([12]; 0.063 kg/ha): 0.0
Herbicidal effect rating, ORYSAT ([12]; 0.125 kg/ha): 0.0
Herbicidal effect rating, ORYSAT ([12]; 0.250 kg/ha): 0.0
Herbicidal effect rating, ORYSAT ([12]; 0.500 kg/ha): 0.0
ZEAMX herbicidal rating ([13]; Rate 0.125 kg/ha): 0.0
ZEAMX herbicidal rating ([13]; Rate 0.250 kg/ha): 0.0
ZEAMX herbicidal rating ([13]; Rate 0.500 kg/ha): 0.0
SETVI herbicidal rating ([14]; Rate 0.125 kg/ha): 0.0
SETVI herbicidal rating ([14]; Rate 0.250 kg/ha): 0.0
SETVI herbicidal rating ([14]; Rate 0.500 kg/ha): 0.0
TRZAWO herbicidal rating ([15]; Rate 0.125 kg/ha): 0.0
TRZAWO herbicidal rating ([15]; Rate 0.250 kg/ha): 0.0
TRZAWO herbicidal rating ([15]; Rate 0.500 kg/ha): 0.0
